# According to patent US20080306054A1, “Pharmaceutical Compounds” (ASTEX THERAPEUTICS LIMITED, priority 2005, published 2008):
# Tests used:
# HCT116 cell line = test: Anti-proliferative activity, Alamar Blue assay; type: cell-based; conditions: HCT-116, human colon cancer cell line HCT116, 72 hours with compound, read-out: IC50 values against the HCT116 cell line
# Method: The anti-proliferative activities of compounds of the invention can be determined by measuring the ability of the compounds to inhibition of cell growth in a number of cell lines such as the human colon cancer cell line HCT116. Inhibition of cell growth is measured using the Alamar Blue assay (Nociari, M. M, Shalev, A., Benias, P., Russo, C. Journal of Immunological Methods 1998, 213, 157-167). The method is based on the ability of viable cells to reduce resazurin to its fluorescent product resorufin. For each proliferation assay cells are plated onto 96 well plates and allowed to recover for 16 hours prior to the addition of inhibitor compounds for a further 72 hours. At the end of the incubation period 10% (v/v) Alamar Blue is added and incubated for a further 6 hours prior to determination of fluorescent product at […]. In the case of the non-proliferating cell assay cells are maintained at confluence for 96 hour prior to the addition of inhibitor compounds for a further 72 hours. The number of viable cells is determined by Alamar Blue assay as before. Cell lines can be obtained from the ECACC (European Collection of cell Cultures).
# [1] = target: T1, Human Hsp90α N-terminal domain (Homo sapiens, UniProt P07900); test: Isothermal titration calorimetry (ITC); type: binding; conditions: pH 7.4
# T1 construct: purification of the Human Hsp90α N-terminal domain were performed according to published methods; made in house
# Method: The ability of the compounds of the invention to bind to human Hsp90 proteins was determined using isothermal titration calorimetry.
# Isothermal titration calorimetry (ITC) experiments were performed with a VP-ITC titration calorimeter (Microcal Inc., Northampton, Mass., USA). […] All solutions were filtered and degassed prior to a titration being carried out. The enthalpy change resulting from each injection of ligand was obtained through integration of the calorimetric signal. Data were analysed using Origin 7.0 (Microcal Software Inc., Northampton, Mass.). Heats of dilution were estimated using the final injections of each individual titration and subtracted before data fitting. Different ITC experimental formats were employed in order to obtain compound dissociation constants (Kd's) over a wide range of affinities. […] In this type of experiment the stoichiometry parameter (N) was locked at 1 for data fitting.
Compound,IC50 (HCT116 cell line) [µM],Kd [1] [µM]
"CC(C)c1cc(C(=O)N2CC[C@@H](O)C2)c(O)cc1O (stereo in doubt) [Example 61, (2,4-dihydroxy-5-isopropyl-phenyl)-(3-hydroxy-pyrrolidin-1yl)-methanone]",< 10,–
"CC(C)c1cc(C(=O)N2CCOCC2)ccc1O [Example 20, (4-Hydroxy-3-isopropyl-phenyl)-morpholin-4-yl-methanone]",–,< 1
"CC(C)c1cc(C(=O)N2CCOCC2)c(O)cc1O [Example 29, (2,4-Dihydroxy-5-isopropyl-phenyl)-morpholin-4-yl-methanone]",–,< 1
"CC(C)(C)c1cc(C(=O)N2CCC(O)(c3ccccc3)CC2)ccc1O [Example 37, (3-tert-Butyl-4-hydroxy-phenyl)-(4-hydroxy-4-phenyl-piperidin-1-yl)-methanone]",< 10,–
"CC(C)(C)c1cc(C(=O)N2CCOCC2)c(O)cc1O [Example 54, (5-tert-Butyl-2,4-dihydroxy-phenyl)-morpholin-4-yl-methanone]",< 10,< 1
"CC(C)c1cc(C(=O)N2CCOC(CO)C2)c(O)cc1O (stereo not shown) [Example 55, (2,4-dihydroxy-5-isopropyl-phenyl)-(2-hydroxymethyl-morpholin-4yl)-methanone]",< 10,< 1
"CC(C)c1cc(C(=O)N2CCN(CCN(C)C)CC2)c(O)cc1O [Example 56, (2,4-dihydroxy-5-isopropyl-phenyl)-[4-(2-dimethylamino-ethyl)-piperazin-1-yl]-methanone]",< 10,< 1
CC(C)c1cc(C(=O)N2CCC(CCO)CC2)c(O)cc1O [Example 57],< 10,< 1
"CC(C)c1cc(C(=O)N2CCC(CO)CC2)c(O)cc1O [Example 58, (2,4-dihydroxy-5-isopropyl-phenyl)-(4-hydroxymethyl-piperidin-yl)-methanone]",< 10,–
"CC1CN(C(=O)c2cc(C(C)C)c(O)cc2O)CC(C)O1 (stereo not shown) [Example 59, (2,4-dihydroxy-5-isopropyl-phenyl)-(2,6-dimethyl-morpholin-4-yl)-methanone]",< 10,–
"CCOC(=O)CC1CCN(C(=O)c2cc(C(C)C)c(O)cc2O)CC1 [Example 60, [1-(2,4-dihydroxy-5-isopropyl-benzoyl)-piperidin-4-yl)-acetic acidethyl ester]",< 10,–
"CC(C)c1cc(C(=O)N2CCN(C)CC2)c(O)cc1O [Example 66, (2,4-dihydroxy-5-isopropyl-phenyl)-(4-methyl-piperazin-1-yl)-methanone]",< 10,–
"CC(C)c1cc(C(=O)N2CCS(=O)(=O)CC2)c(O)cc1O [Example 68, (2,4-dihydroxy-5-isopropyl-phenyl)-(1,1-dioxo-1lambda*6*-thiomorpholin-4-yl)-methanone]",< 10,–
"CC(C)c1cc(C(=O)N2CCN(C(=O)OC(C)(C)C)CC2)c(O)cc1O [Example 69, 4-(2,4-dihydroxy-5-isopropyl-benzoyl)-piperazine-1-carboxylic acidtert-butyl ester]",< 10,–

# Next, values leading:
IC50 (HCT116 cell line) [µM],Kd [1] [µM],Compound
< 10,–,"CNC(=O)CN(C(=O)c1cc(C(C)C)c(O)cc1O)c1ccc(F)cc1 [Example 62, N-(4-fluoro-phenyl)-2,4-dihydroxy-5-isopropyl-N-methylcarbamoylmethyl-benzamide]"
< 10,–,"CNC(=O)CN(C(=O)c1cc(C(C)C)c(O)cc1O)c1ccc(CN2CCOCC2)cc1 [Example 63, 2,4-dihydroxy-5-isopropyl-N-methylcarbamoylmethyl-N-(4-morpholin-4-ylmethyl-phenyl)-benzamide]"
< 10,–,"CC(C)c1cc(C(=O)N(C)c2ccc(CN3CCOCC3)cc2)c(O)cc1O [Example 64, 2,4-dihydroxy-5-isopropyl-N-methyl-N-(4-morpholin-4-yl-methyl-phenyl)-benzamide]"
< 10,< 1,"CC(C)c1cc(C(=O)N(Cc2ccccc2)c2ccc(CN3CCOCC3)cc2)c(O)cc1O [Example 65, N-benzyl-2,4-dihydroxy-5-isopropyl-N-(4-morpholin-4-ylmethyl-phenyl)-benzamide]"
< 10,–,"CC(C)c1cc(C(=O)N(C)c2ccc(F)cc2)c(O)cc1O [Example 70, N-(4-fluoro-phenyl)-2,4-dihydroxy-5-isopropyl-N-methyl-benzamide]"
< 10,–,"CCN(C(=O)c1cc(C(C)C)c(O)cc1O)c1ccc(F)cc1 [Example 71, N-ethyl-N-(4-fluoro-phenyl)-2,4-dihydroxy-5-isopropyl-benzamide]"
< 10,–,"CC(C)c1cc(C(=O)N(CCC#N)c2ccc(F)cc2)c(O)cc1O [Example 72, N-(2-cyano-ethyl)-N-(4-fluoro-phenyl)-2,4-dihydroxy-5-isopropyl-benzamide]"
< 10,< 1,"CC(C)c1cc(C(=O)N(c2ccc(F)cc2)C2CCOCC2)c(O)cc1O [Example 73, N-(4-fluoro-phenyl)-2,4-dihydroxy-5-isopropyl-N-(tetrahydro-pyran-4-yl)-benzamide]"
